Results on seven compounds are retold here after US5908787A, “Total protein detection method” (Bayer Corporation, priority 1997, dated 1999).

Structures are written as SMILES.

Test system in the first series: not listed separately
The series is described as follows: pKa of secondary dye. Format: physicochemical. The conditions noted are these: second pKa of the dye. The text has this:
Structure A represents the general structure of phenolsulfonephthalein derivatives in protic solvents such as water or an alcohol while structure B represents the form that predominates in the dry state or in aprotic solvents such as ethers and acetonitrile. The phenolsulfonephthalein error indicators are pH indicators which include an ionizable proton having a pKa value such that the proton is displaced by the presence of protein. The pKa value of a phenolsulfonephthalein indicator is the pH at which one half of the number of indicator molecules include the deprotonated C ring phenolic hydroxyl group. In the case of the phenolsulfonephthalein protein error indicators illustrated above, two deprotonation events occur in order to cause an observable color change. The first deprotonation removes the proton from the aryl sulfonic acid on the A ring to yield the ion illustrated below as formula C: [drawing 2]
The pKa of this proton is less than one, resulting in the ionization of this moiety at all useful pH values. This ionizable group is also responsible for the aqueous solubility of these compounds. The second deprotonation involves the release of a proton from the C ring phenolic hydroxyl to yield the dianion. With this type of protein error indicator, the second deprotonization causes the observable color change which is indicative of the presence of protein in the sample being tested. The phenolsulfonephthalein protein error indicator is typically applied to an absorbent matrix material along with a buffer to provide an environment of constant pH, so that one can rely on the color change being the result of the presence of protein rather than the result of a pH change upon contact with the test fluid.
A word on the pKa: it is the pH at which an ionisable group is half protonated. A lower pKa goes with a stronger acid or weaker base. As to `O=S1(=O)OC(c2cc(Br)c(O)c(Br)c2)(c2cc(Br)c(O)c(Br)c2)c2ccccc21` [Secondary dye 1, Bromophenol blue], the pKa turned out to be 3.7. `O=S1(=O)OC(c2cc(Br)c(O)c(Br)c2)(c2cc(Br)c(O)c(Br)c2)c2c(Br)c(Br)c(Br)c(Br)c21` [Secondary dye 2, Tetrabromophenol blue]: the pKa was 3.5. The same measure, in the same setting: the value for `O=S1(=O)OC(c2cc(Cl)c(O)c(Br)c2)(c2cc(Cl)c(O)c(Br)c2)c2ccccc21` [Secondary dye 3, Bromochlorophenol blue] was 3.8; that for `O=S1(=O)OC(c2cc(I)c(O)c(I)c2)(c2cc(I)c(O)c(I)c2)c2ccccc21` [Secondary dye 4, Tetraiodophenolsulfonephthalein] was 4.0. Regarding `O=[N+]([O-])c1cc(C2(c3cc(I)c(O)c([N+](=O)[O-])c3)OS(=O)(=O)c3c(Br)c(Br)c(Br)c(Br)c32)cc(I)c1O` [Secondary dye 5, 5',5"-Dinitro-3',3"-Diiodo-3,4,5,6-Tetrabromophenolsulfonephthalein], the pKa is 1.5. The compound `O=[N+]([O-])c1cc(C2(c3cc(Br)c(O)c([N+](=O)[O-])c3)OS(=O)(=O)c3c(Br)c(Br)c(Br)c(Br)c32)cc(Br)c1O` [Secondary dye 6, 5',5"-Dinitro-3',3",3,4,5,6-hexabromophenolsulfonephthalein] displayed a pKa of 1.6.

The compound `O=[N+]([O-])c1cc(C2(c3cc(Br)c(O)c(I)c3)OS(=O)(=O)c3c(Br)c(Br)c(Br)c(Br)c32)cc(Br)c1O` (centres unmarked) [Secondary dye 7, 5'-Nitro-5''-Iodo-3',3"3,4,5,6-hexabromophenolsulfonephthalein] displayed a pKa of 1.6.

The next series concerns protein. As to the kind of experiment: Ka, affinity of secondary dye for protein. Format: binding.
Conditions: not given
From the text: The phenolsulfonephthalein protein error indicators are used in conjunction with the molybdate or tungstate salt assay for protein in which a fluid test sample is combined with a molybdate or tungstate salt and a dye which forms a complex therewith whose absorption band is shifted in the presence of protein. As is disclosed in U.S. Pat. No. 5,399,498; tungstate reacts with the indicator to form a complex whose color shifts in the presence of protein in a manner similar to that of molybdenum. This patent also discloses the use of phytic acid or derivatives thereof to reduce background interference in this sort of assay. […] This method is a total protein assay since the response is not dependent on the type of protein present in the test sample. […] Since total protein assays are useful in the detection of certain disease states, and the higher the total protein spillover into urine the more serious the potential problem, a total protein assay which provides a detectable response at high protein concentrations is desirable.
Take `O=[N+]([O-])c1cc(C2(c3cc(I)c(O)c([N+](=O)[O-])c3)OS(=O)(=O)c3c(Br)c(Br)c(Br)c(Br)c32)cc(I)c1O` [Secondary dye 5, 5',5"-Dinitro-3',3"-Diiodo-3,4,5,6-Tetrabromophenolsulfonephthalein]: the “affinity for protein (in words)” value was “too high an affinity for proteins”.
